{
  "source": "patent US20230203043A1",
  "about": "“NOVEL IMIDAZOPYRAZINE DERIVATIVES” (Hoffmann-La Roche Inc., priority 2020, published 2023)",
  "note": "Structures can show the parent of a compound that is named as a salt.",
  "data": [
    {"test_system": "Acinetobacter baumannii ATCC17961", "test": "Antimicrobial susceptibility testing: 90% growth inhibitory concentration (IC90) determination in Iso-Sensitest broth, OD600 growth", "format": "cell-based", "settings": "Acinetobacter baumannii, ATCC17961, 16 h, read-out: A. baumannii ATCC 17961 IC90 (uM), strain ATCC 17961, OD600 growth over 16 h", "protocol": "(§1) Antimicrobial Susceptibility Testing:\n(§2) 90% Growth Inhibitory Concentration (IC90) Determination\n(§3) The in vitro antimicrobial activity of the compounds was determined according to the following procedure:\n(§4) The assay used a 10-points Iso-Sensitest broth medium to measure quantitatively the in vitro activity of the compounds against Acinetobacter baumannii ATCC17961 or ATCC17968.\n(§5) Stock compounds in DMSO were serially twofold diluted (e.g. range from 50 to 0.097 μM final concentration) in 384 wells microtiter plates and inoculated with 49 μl the bacterial suspension in Iso-Sensitest medium to have a final cell concentration of ˜5×10^(5) CFU/ml in a final volume/well of 50 ul/well. Microtiter plates were incubated at 35±2° C.\n(§6) Bacterial cell growth was determined with the measurement of optical density at λ=600 nm each 20 minutes over a time course of 16 h. Growth inhibition was calculated during the logarithmic growth of the bacterial cells with determination of the concentration inhibiting 50% (IC50) and 90% (IC90) of the growth.\n(§7) Table 7 provides the 90% growth inhibitory concentrations (IC90) in micromoles per liter of the compounds of present invention obtained against the strain Acinetobacter baumannii ATCC17961 and/or ATCC17968.", "units": {"IC90": "µM"}, "values": [
      {"smiles": "C[C@@H](NC(=O)c1ccc(Nc2nccn3c(-c4c[nH]nc4C(F)(F)F)cnc23)cc1Cl)C(=O)NCCN(C)C", "note": "[Example 98, 2-chloro-N-[(2R)-1-[2-(dimethylamino)ethylamino]-1-oxopropan-2-yl]-4-[[3-[3-(trifluoromethyl)-1H-pyrazol-4-yl]imidazo[1,2-a]pyrazin-8-yl]amino]benzamide formate]", "IC90": 1.94},
      {"smiles": "CCc1cc(Nc2nccn3c(-c4c[nH]nc4C(F)(F)F)cnc23)ccc1C(=O)NCCNC(=O)[C@@H](C)N", "note": "[Example 696, (R)-N-(2-(2-aminopropanamido)ethyl)-2-ethyl-4-((3-(3-(trifluoromethyl)-1H-pyrazol-4-yl)imidazo [1,2-a]pyrazin-8-yl)amino)benzamide formate]", "IC90": 0.37},
      {"smiles": "C#CC(C)n1cc(-c2cnc3c(Nc4ccc(C(=O)NCCOCCN)c(CC)c4)nccn23)c(C(F)(F)F)n1", "note": "(stereo not shown) [Example 232, N-[2-(2-aminoethoxy)ethyl]-4-[[3-[1-but-3-yn-2-yl-3-(trifluoromethyl)pyrazol-4-yl]imidazo[1,2-a]pyrazin-8-yl]amino]-2-ethylbenzamide formate]", "IC90": 0.124},
      {"smiles": "Cc1cc(Nc2nccn3c(-c4cn(CC#N)nc4C(F)(F)F)cnc23)ccc1C(=O)N1CCN(C(=O)[C@@H]2CCNC[C@@H]2O)CC1", "note": "[Example 421, formic acid; 2-[4-[8-[4-[4-[(3R,4R)-3-hydroxypiperidine-4-carbonyl]piperazine-1-carbonyl]-3-methylanilino]imidazo[1,2-a]pyrazin-3-yl]-3-(trifluoromethyl)pyrazol-1-yl]acetonitrile]", "IC90": 0.629},
      {"smiles": "CCc1cc(Nc2nccn3c(-c4cn(C)nc4C(F)(F)F)cnc23)ccc1C(=O)NCCNC(=O)[C@@H]1C[C@@](O)(CC)CN1", "note": "[Example 446, (2S,4S)-4-ethyl-N-[2-[[2-ethyl-4-[[3-[1-methyl-3-(trifluoromethyl)pyrazol-4-yl]imidazo[1,2-a]pyrazin-8-yl]amino]benzoyl]amino]ethyl]-4-hydroxypyrrolidine-2-carboxamide formate]", "IC90": 2.27},
      {"smiles": "Cc1cc(Nc2nccn3c(-c4c[nH]nc4C(F)(F)F)cnc23)ccc1C(=O)N1CCN(C(=O)CCN)CC1", "note": "[Example 418, 3-amino-1-[4-[2-methyl-4-[[3-[3-(trifluoromethyl)-1H-pyrazol-4-yl]imidazo[1,2-a]pyrazin-8-yl]amino]benzoyl]piperazin-1-yl]propan-1-one formate]", "IC90": 0.583},
      {"smiles": "O=C(CC1CCNCC1)N1CCN(C(=O)c2ccc(Nc3nccn4c(-c5c[nH]nc5C(F)(F)F)cnc34)cc2Cl)CC1", "note": "[Example 570, 1-(4-(2-chloro-4-((3-(3-(trifluoromethyl)-1H-pyrazol-4-yl)imidazo[1,2-a]pyrazin-8-yl)amino)benzoyl)piperazin-1-yl)-2-(piperidin-4-yl) ethan-1-one formate]", "IC90": 0.256},
      {"smiles": "CCc1cc(Nc2nccn3c(-c4cn(CC(F)F)nc4C(F)(F)F)cnc23)ccc1C(=O)N1CCC12CNC2", "note": "[Example 559, (4-((3-(1-(2,2-difluoroethyl)-3-(trifluoromethyl)-1H-pyrazol-4-yl)imidazo[1,2-a]pyrazin-8-yl)amino)-2-ethylphenyl)(1,6-diazaspiro[3.3]heptan-1-yl)methanone formate]", "IC90": 0.398},
      {"smiles": "CCc1cc(Nc2nccn3c(-c4cn(CC(F)F)nc4C(F)(F)F)cnc23)ccc1C(=O)NCC(=O)NCC1CCN1", "note": "(stereo not shown) [Example 530, N-[2-(azetidin-2-ylmethylamino)-2-oxo-ethyl]-4-[[3-[1-(2,2-difluoroethyl)-3-(trifluoromethyl)pyrazol-4-yl]imidazo[1,2-a]pyrazin-8-yl]amino]-2-ethyl-benzamide formate]", "IC90": 0.327},
      {"smiles": "CCc1cc(Nc2nccn3c(-c4c[nH]nc4C(F)(F)F)cnc23)ccc1C(=O)NCCN", "note": "[Example 229, N-(2-aminoethyl)-2-ethyl-4-[[3-[3-(trifluoromethyl)-1H-pyrazol-4-yl]imidazo[1,2-a]pyrazin-8-yl]amino]benzamide formate]", "IC90": 1.1},
      {"smiles": "CCOC(=O)Cn1cc(-c2cnc3c(Nc4ccc(C(=O)NCCOCCN)c(CC)c4)nccn23)c(C(F)(F)F)n1", "note": "[Example 310, ethyl 2-[4-[8-[4-[2-(2-aminoethoxy)ethylcarbamoyl]-3-ethylanilino]imidazo [1,2-a]pyrazin-3-yl]-3-(trifluoromethyl)pyrazol-1-yl]acetate formate]", "IC90": 0.719}
    ]},
    {"test_system": "Acinetobacter baumannii ATCC17961", "test": "Antimicrobial susceptibility testing: 90% growth inhibitory concentration (IC90) determination in Iso-Sensitest broth, OD600 growth", "format": "cell-based", "settings": "Acinetobacter baumannii, ATCC17961, 16 h, strain ATCC 17961, OD600 growth over 16 h, read-out: A. baumannii ATCC 17961 IC90", "protocol": "as §1, §2, §3, §4, §5, §6, §7", "units": {"IC90": "µM"}, "values": [
      {"smiles": "N#CCn1cc(-c2cnc3c(Nc4ccc(C(=O)NCCOCCN)c(Cl)c4)nccn23)c(C(F)(F)F)n1", "note": "[Example 257, N-[2-(2-aminoethoxy)ethyl]-2-chloro-4-[[3-[1-(cyanomethyl)-3-(trifluoromethyl)pyrazol-4-yl]imidazo[1,2-a]pyrazin-8-yl]amino]benzamide]", "IC90": 0.37},
      {"smiles": "Cc1cc(Nc2nccn3c(-c4cn(CC#N)nc4C(F)(F)F)cnc23)ccc1C(=O)NCC(=O)N1CCNCC1", "note": "[Example 706, 4-[[3-[1-(cyanomethyl)-3-(trifluoromethyl)pyrazol-4-yl]imidazo[1,2-a]pyrazin-8-yl]amino]-2-methyl-N-(2-oxo-2-piperazin-1-yl-ethyl) benzamide formate]", "IC90": 0.394},
      {"smiles": "CCc1cc(Nc2nccn3c(-c4cn(CCF)nc4C(F)(F)F)cnc23)ccc1C(=O)N[C@@H](C)CN", "note": "[Example 65, N-[(2S)-1-aminopropan-2-yl]-2-ethyl-4-[[3-[1-(2-fluoroethyl)-3-(trifluoromethyl)pyrazol-4-yl]imidazo[1,2-a]pyrazin-8-yl]amino]benzamide]", "IC90": 0.339},
      {"smiles": "CCc1cc(Nc2nccn3c(-c4cn(Cc5ccn(CC#N)n5)nc4C(F)(F)F)cnc23)ccc1C(=O)NC", "note": "[Example 589, 4-((3-(1-((1-(cyanomethyl)-1H-pyrazol-3-yl)methyl)-3-(trifluoromethyl)-1H-pyrazol-4-yl)imidazo[1,2-a]pyrazin-8-yl)amino)-2-ethyl-N-methylbenzamide]", "IC90": 0.84},
      {"smiles": "C#CCNCCCNC(=O)c1ccc(Nc2nccn3c(-c4c[nH]nc4C(F)(F)F)cnc23)cc1CC", "note": "[Example 184, 2-ethyl-N-[3-(prop-2-ynylamino)propyl]-4-[[3-[3-(trifluoromethyl)-1H-pyrazol-4-yl]imidazo[1,2-a]pyrazin-8-yl]amino]benzamide]", "IC90": 0.4},
      {"smiles": "CCc1cc(Nc2nccn3c(-c4cn(CC#N)nc4Cl)cnc23)ccc1C(=O)NCCOCCN", "note": "[Example 833, N-(2-(2-aminoethoxy)ethyl)-4-((3-(3-chloro-1-(cyanomethyl)-1H-pyrazol-4-yl)imidazo[1,2-α]pyrazin-8-yl)amino)-2-ethylbenzamide]", "IC90": 0.46}
    ]},
    {"test_system": "Acinetobacter baumannii ATCC17961", "test": "Antimicrobial susceptibility testing: 90% growth inhibitory concentration (IC90) determination in Iso-Sensitest broth, OD600 growth", "format": "cell-based", "settings": "strain ATCC 17961, OD600 growth over 16 h, read-out: A. baumannii ATCC 17961 IC90", "protocol": "as §1, §2, §3, §4, §5, §6, §7", "units": {"IC90": "µM"}, "values": [
      {"smiles": "NC1CCC(NC(=O)N2CCN(C(=O)c3ccc(Nc4nccn5c(-c6c[nH]nc6C(F)(F)F)cnc45)cc3Cl)CC2)CC1", "note": "(stereo not shown) [Example 291, N-(4-aminocyclohexyl)-4-[2-chloro-4-[[3-[3-(trifluoromethyl)-1H-pyrazol-4-yl]imidazo[1,2-a]pyrazin-8-yl]amino]benzoyl] piperazine-1-carboxamide formate]", "IC90": 0.332},
      {"smiles": "C[C@H](O)CNC(=O)c1ccc(Nc2nccn3c(-c4cn(CC#N)nc4C(F)(F)F)cnc23)cc1Cl", "note": "[Example 240, 2-chloro-4-[[3-[1-(cyanomethyl)-3-(trifluoromethyl)pyrazol-4-yl]imidazo[1,2-a]pyrazin-8-yl]amino]-N-[(2S)-2-hydroxypropyl] benzamide]", "IC90": 0.253}
    ]}
  ]
}
